What follows are molecules tested on rat small-intestinal brush border membrane vesicles (assay: Inhibitory effect on 33PO4 uptake into rat small-intestinal brush border membrane vesicles (rapid filtration method)). Conditions: 1 µM test compound; 33PO4 uptake into rat small-intestinal BBMVs, 60 seconds.
Format: biochemical, Wistar female rat
Outline: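 Uptake was terminated by ice-cold 110 mM NaCl, 1 mM KH2PO4, 10 mM HEPES (pH 7.5) buffer and immediate suction filtration, then washing. Using rat small-intestinal BBMVs, retained 33PO4 was quantified by liquid scintillation counting as transport activity.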

Compound | Rate of uptake inhibition (%) (1 µM)
CN1N(Cc2ccc(OCCN[C@@H](CC(=O)O)C(=O)O)c(F)c2F)C(=O)C(C(=O)Nc2ccc(C(F)(F)F)cc2-c2cc(C(F)(F)F)ncn2)=C(O)C12CCCC2 [Example 381, (2S)-2-[2-[2,3-Difluoro-4-[[10-hydroxy-6-methyl-8-oxo-9-[[4-(trifluoromethyl)-2-[6-(-trifluoromethyl)pyrimidin-4-yl]phenyl]carbamoyl]-6,7-diazaspiro[4.5]dec-9-en-7-yl]methyl]phenoxy]ethylamino]butanedioate] | 28
CN1N(Cc2ccc(OCCNC(CC(=O)O)CC(=O)O)c(F)c2F)C(=O)C(C(=O)Nc2ccc(C(F)(F)F)cc2-c2cc(C(F)(F)F)ncn2)=C(O)C12CCCC2 [Example 382, 3-[2-[2,3-Difluoro-4-[[10-hydroxy-6-methyl-8-oxo-9-[[4-(trifluoromethyl)-2-[6-(trifluoromethyl)pyrimidin-4-yl]phenyl]carbamoyl]-6,7-diazaspiro[4.5]dec-9-en-7-yl]methyl]phenoxy]ethylamino]pentanedioate] | 21
CN1N(Cc2ccc(OCCCOC[C@H](O)CO)c(F)c2F)C(=O)C(C(=O)Nc2ccc(C(F)(F)F)cc2-c2ccc(C(F)(F)F)nc2)=C(O)C12CCC2 [Example 383, 6-[[4-[3-[(2R)-2,3-Dihydroxypropoxy]propoxy]-2,3-difluorophenyl]methyl]-9-hydroxy-5-methyl-7-oxo-N-[4-(trifluoromethyl)-2-[6-(trifluoromethyl)pyrydin-3-yl]phenyl]-5,6-diazaspiro[3.5]non-8-ene-8-carboxamide] | 126
CN1N(Cc2ccc(OCCCCOC[C@H](O)CO)c(F)c2F)C(=O)C(C(=O)Nc2ccc(C(F)(F)F)cc2-c2ccc(C(F)(F)F)nc2)=C(O)C12CCC2 [Example 384] | 39
CN1N(Cc2ccc(OCCCCCOC[C@H](O)CO)c(F)c2F)C(=O)C(C(=O)Nc2ccc(C(F)(F)F)cc2-c2ccc(C(F)(F)F)nc2)=C(O)C12CCC2 [Example 385] | 39
CN1N(Cc2ccc(OCCCOC[C@H](O)CO)c(F)c2F)C(=O)C(C(=O)Nc2ccc(C(F)(F)F)cc2-c2ccc(C(F)(F)F)nc2)=C(O)C12CCCC2 [Example 386] | 36
CN1N(Cc2ccc(OCCCCOC[C@H](O)CO)c(F)c2F)C(=O)C(C(=O)Nc2ccc(C(F)(F)F)cc2-c2ccc(C(F)(F)F)nc2)=C(O)C12CCCC2 [Example 387] | 23
CN1N(Cc2ccc(OCCCCCOC[C@H](O)CO)c(F)c2F)C(=O)C(C(=O)Nc2ccc(C(F)(F)F)cc2-c2ccc(C(F)(F)F)nc2)=C(O)C12CCCC2 [Example 388] | 15
CN1N(Cc2ccc(OCCCOC[C@H](O)CO)c(F)c2F)C(=O)C(C(=O)Nc2ccc(C(F)(F)F)cc2-c2cc(C(F)(F)F)ncn2)=C(O)C12CCC2 [Example 389] | 29
CN1N(Cc2ccc(OCCCCOC[C@H](O)CO)c(F)c2F)C(=O)C(C(=O)Nc2ccc(C(F)(F)F)cc2-c2cc(C(F)(F)F)ncn2)=C(O)C12CCC2 [Example 390] | 58
CN1N(Cc2ccc(OCCCCCOC[C@H](O)CO)c(F)c2F)C(=O)C(C(=O)Nc2ccc(C(F)(F)F)cc2-c2cc(C(F)(F)F)ncn2)=C(O)C12CCC2 [Example 391] | 42
CN1N(Cc2ccc(OCCCOC[C@H](O)CO)c(F)c2F)C(=O)C(C(=O)Nc2ccc(C(F)(F)F)cc2-c2cc(C(F)(F)F)ncn2)=C(O)C12CCCC2 [Example 392] | 47
CN1N(Cc2ccc(OCCCCOC[C@H](O)CO)c(F)c2F)C(=O)C(C(=O)Nc2ccc(C(F)(F)F)cc2-c2cc(C(F)(F)F)ncn2)=C(O)C12CCCC2 [Example 393] | 45
CN1N(Cc2ccc(OCCCCCOC[C@H](O)CO)c(F)c2F)C(=O)C(C(=O)Nc2ccc(C(F)(F)F)cc2-c2cc(C(F)(F)F)ncn2)=C(O)C12CCCC2 [Example 394] | 45
CN1N(Cc2ccc(OCCCOCCO)c(F)c2F)C(=O)C(C(=O)Nc2ccc(C(F)(F)F)cc2-c2cc(C(F)(F)F)ncn2)=C(O)C12CCCC2 [Example 395] | 39
CN1N(Cc2ccc(OCCCCOCCO)c(F)c2F)C(=O)C(C(=O)Nc2ccc(C(F)(F)F)cc2-c2cc(C(F)(F)F)ncn2)=C(O)C12CCCC2 [Example 396] | 38

Compound | Rate of uptake inhibition (%) (1 µM)
CN1N(Cc2ccc(OCCCCCOCCO)c(F)c2F)C(=O)C(C(=O)Nc2ccc(C(F)(F)F)cc2-c2cc(C(F)(F)F)ncn2)=C(O)C12CCCC2 [Example 397] | 40
CN1N(Cc2ccc(OCCCOCCCO)c(F)c2F)C(=O)C(C(=O)Nc2ccc(C(F)(F)F)cc2-c2cc(C(F)(F)F)ncn2)=C(O)C12CCCC2 [Example 398] | 34
CN1N(Cc2ccc(OCCCCOCCCO)c(F)c2F)C(=O)C(C(=O)Nc2ccc(C(F)(F)F)cc2-c2cc(C(F)(F)F)ncn2)=C(O)C12CCCC2 [Example 399] | 42
CN1N(Cc2ccc(OCCCCCOCCCO)c(F)c2F)C(=O)C(C(=O)Nc2ccc(C(F)(F)F)cc2-c2cc(C(F)(F)F)ncn2)=C(O)C12CCCC2 [Example 400] | 36
COCCOCCOc1ccc(CN2C(=O)C(C(=O)Nc3ccc(C(F)(F)F)cc3-c3cc(C(F)(F)F)ncn3)=C(O)C3(CCC3)N2C)c(F)c1F [Example 401] | 39
CN(CCOc1ccc(CN2C(=O)C(C(=O)Nc3ccc(C(F)(F)F)cc3-c3cc(C(F)(F)F)ncn3)=C(O)C3(CCC3)N2C)c(F)c1F)C1COC1 [Example 402, 6-(2,3-Difluoro-4-(2-(methyl(oxetan-3-yl)amino)ethoxy)benzyl)-9-hydroxy-5-methyl-7-oxo-N-(4-(trifluorometyl)-2-(6-(trifluoromtthyl)pyrimidin-4-yl)phenyl)-5,6-diazaspiro[3.5]non-8-ene-8-carboxamide] | 54
CN1N(Cc2ccc(OC3COC3)c(F)c2F)C(=O)C(C(=O)Nc2ccc(C(F)(F)F)cc2-c2cc(C(F)(F)F)ncn2)=C(O)C12CCC2 [Example 403, 6-(2,3-Difluoro-4-(oxetan-3-yloxy)benzyl)-9-hydroxy-5-methyl-7-oxo-N-(4-(trifluoromethyl)-2-(6-(trifluoromethyl)pyrimidin-4-yl)phenyl)-5,6-diazaspiro[3.5]non-8-ene-8-carboxamide] | 71
COCCN1CCC[C@H]1COc1ccc(CN2C(=O)C(C(=O)Nc3ccc(C(F)(F)F)cc3-c3cc(C(F)(F)F)ncn3)=C(O)C3(CCC3)N2C)c(F)c1F [Example 404, 6-[[2,3-Difluoro-4-[[(2S)-1-(2-methoxyethyl)pirrolidin-2-yl]methoxy]phenyl]methyl]-9-hydroxy-5-methyl-7-oxo-N-[4-(trifluoromethyl)-2-[6-(trifluoromethyl)pyrimidin-4-yl]phenyl]-5,6-diazaspiro[3.5]non-8-ene-8-carboxamide] | 43
COCCN1CC[C@@H](Oc2ccc(CN3C(=O)C(C(=O)Nc4ccc(C(F)(F)F)cc4-c4cc(C(F)(F)F)ncn4)=C(O)C4(CCC4)N3C)c(F)c2F)C1 [Example 405, 6-[[2,3-Difluoro-4-[(3R)-1-(2-methoxyethyl)pyrrolidin-3-yl]oxyphenyl]methyl]-9-hydroxy-5-methyl-7-oxo-N-[4-(trifluoromethyl)-2-[6-(trifluoromethyl)pyrimidin-4-yl)phenyl]-5,6-diazaspiro[3.5]non-8-ene-8-carboxamide] | 30
COCCN1CC(Oc2ccc(CN3C(=O)C(C(=O)Nc4ccc(C(F)(F)F)cc4-c4cc(C(F)(F)F)ncn4)=C(O)C4(CCC4)N3C)c(F)c2F)C1 [Example 406, 6-[[2,3-Difluoro-4-[1-(2-methoxyethyl)azetidin-3-yl]oxyphenyl]methyl]-9-hydroxy-5-methyl-7-oxo-N-[4-(trifluoromethyl)-2-[6-(trifluoromethl)pyrimidin-4-yl]phenyl]-5,6-diazaspiro[3.5]non-8-ene-8-carboxamide] | 27
CN1N(Cc2ccc(OC(C)(C)CN3CCOCC3)c(F)c2F)C(=O)C(C(=O)Nc2ccc(C(F)(F)F)cc2-c2cc(C(F)(F)F)ncn2)=C(O)C12CCC2 [Example 407, 6-[[2,3-Difluoro-4-(2-methyl-1-morpholin-4-ylpropan-2-yl)oxyphenyl]methyl]-9-hydroxy-5-methyl-7-oxo-N-[4-(trifluoromethyl)-2-[6-(trifluoromethyl)pyrimidin-4-yl]phenyl]-5,6-diazaspiro[3.5]non-8-ene-8-carboxamide] | 30
CC(CN1CCOCC1)Oc1ccc(CN2C(=O)C(C(=O)Nc3ccc(C(F)(F)F)cc3-c3cc(C(F)(F)F)ncn3)=C(O)C3(CCC3)N2C)c(F)c1F (stereo not shown) [Example 408] | 47
CN1CCC(Oc2ccc(CN3C(=O)C(C(=O)Nc4ccc(C(F)(F)F)cc4-c4cc(C(F)(F)F)ncn4)=C(O)C4(CCC4)N3C)c(F)c2F)CC1 [Example 411] | 32
CN(CCOc1ccc(CN2C(=O)C(C(=O)Nc3ccc(C(F)(F)F)cc3-c3cc(C(F)(F)F)ncn3)=C(O)C3(CCCC3)N2C)c(F)c1F)C1COC1 [Example 412, 7-(2,3-Difluoro-4-(2-(methyl(oxetan-3-yl)amino)ethoxy)benzyl)-10-hydroxy-6-methyl-8-oxo-N-(4-(trifluoromethyl)-2-(6-(trifluoromethyl)pyrimidin-4-yl)phenyl)-6,7-diazaspiro[4.5]dec-9-ene-9-carboxamide] | 52
COCCN(C)CCNc1ccc(CN2C(=O)C(C(=O)Nc3ccc(C(F)(F)F)cc3-c3cc(C(F)(F)F)ncn3)=C(O)C3(CCCC3)N2C)c(F)c1F [Example 417, 7-(2,3-Difluoro-4-((2-((2-methoxyethyl)(methyl)amino)ethyl)amino)benzyl)-10-hydroxy-6-methyl-8-oxo-N-(4-(trifluoromethyl)-2-(6-(trifluoromethyl)pyrimidin-4-yl)phenyl)-6,7-diazaspiro[4.5]dec-9-ene-9-carboxamide] | 48

Source: patent publication EP2975030B1, “DIHYDROPYRIDAZINE-3,5-DIONE DERIVATIVE” (Chugai Seiyaku Kabushiki Kaisha, priority 2013, dated 2014)
